Residues, ends and D or L forms follow the SMILES beside them.
Experiments:
[1] = system: M4 melanoma cells; conditions: 50 μg/ml
Experimental: The collagen coating concentration (5 μg/ml) was chosen based on the concentration which yielded half-maximal levels of cellular motility. The inhibitory effect of the peptides on cell motility was determined by preincubating the cells with increasing concentrations of the peptides for 20 min. prior to the assay to allow for binding to cell surface receptors. Cells in the continued presence of peptides were then added to the upper wells of chambers containing the protein-coated filters.

[2] = system: B104 neuroblastoma; experiment: Cell adhesion and spreading on coated peptide IV-H1 or type IV collagen; assay type: cell-based, rat; conditions: surface coated at 100 μg/ml
Text: (§1) To characterize peptide IV-H1, the interaction of the peptide with other cell lines was investigated. These cell lines include the highly metastatic human melanoma cell line A375 M (also provided by Dr. Fidler), which was maintained in MEM with added vitamins and 10% FBS; and the fibrosarcoma cell line UV2237 MM, which was maintained in DME with 10% FBS. Other cell lines studied included: the C6 rat glioma cell line (ATCC, #CCL107), which was maintained in DME plus 10% CS; the SCC9 human squamous carcinoma cell line (ATCC, #CRL1629), which was maintained in a 1:1 solution of DME and HAM F12 containing 10% FBS; the B65 and B104 murine neuroblastoma cell lines which were obtained from Dr. David Schubert at the Salk Institute (Schuber et al., Nature, 249, 224-227 (1974)) and maintained in F12H media with supplements; and bovine aortic endothelial cells, which were isolated and maintained as described by Herbst et al., J. Cell Biol., 106, 1365-1373 (1988), the disclosure of which is incorporated by reference herein.
(§2) Immulon 1 microtiter plates were prepared by drying down 100 μl/well of IV-H1 peptide which had been diluted to various concentrations (1-500 μg/ml) in Voller's carbonate buffer. The ability of the IV-H1 peptide to bind the plates was determined using radioiodinated peptides (described previously) in order to be certain that any differences in cell adhesion (or spreading) were not due to differential binding to surfaces. Nonspecific cell adhesion to sites on the plastic was blocked by the use of a 10 mg/ml solution of BSA in Voller's carbonate buffer at 37° C. for 1 hr. […] Adhesion was quantitated after washing to remove nonadherent and weakly adherent cells, by solubilizing the cells with 150 μl/well of 0.5N NaOH containing 1% SDS. Bound radioactivity was quantitated in a Beckman LS 3801 liquid scintillation counter. […] Each experiment was repeated a minimum of three times, and within a given experiment, each experimental point was determined in triplicate. […]

[3] = system: B65 neuroblastoma; experiment: as above; assay type: cell-based, rat; conditions: surface coated at 100 μg/ml
Text: as §1, §2

[4] = system: C6 glioma; experiment: as above; assay type: cell-based, rat; conditions: surface coated at 100 μg/ml
Text: as §1, §2

[5] = system: M4 melanoma cells; experiment: Melanoma cell motility in microchemotaxis chambers on coated filters; assay type: cell-based, mouse; conditions: 10 μg/ml solution
Experimental: In light of the involvement of cell adhesion and spreading in motility, peptide IV-H1 was studied for its ability to directly promote melanoma cell motility. Peptide-mediated M4 melanoma cell motility was examined in 48-well microchemotaxis chambers (Neuroprobe, Bethesda, MD) equipped with 8 μm pore size polyvinylpyrrolidone-free polycarbonate filters by a modification of a procedure described by Herbst et al., supra. Briefly, peptides were diluted in Voller's carbonate buffer and added in triplicate 50 μl aliquots to the lower wells of the chambers. The chambers were assembled with the filters in place and incubated overnight at 37° C. to allow the peptides to adsorb to the lower surfaces of the filters. The filters were then washed and transferred to fresh chambers which contained only media (DME containing 20 mM Hepes, pH 7.4). Cells were then added to the upper wells at 20,000/well in DME/Hepes media and incubated for 6 hr. at 37° C. in a humidified CO2 chamber. Filters were then washed, fixed and stained, and the number of cells which had migrated through the filters was quantitated using an Optomax Image Analysis System as described in Herbst et al., supra. Each experiment was repeated a minimum of three times. […] This compares with melanoma cell motility of 10-fold background levels in response to a 10 μg/ml solution of intact type IV collagen (FIG. 4b).

[6] = system: K 1735 M4 melanoma cells; experiment: Melanoma cell adhesion and spreading on peptide-coated Immulon 1 wells; assay type: cell-based, mouse; conditions: K1735 M4 melanoma; surface coated at 100 μg/ml; average of three experiments
Experimental: Subconfluent cultures of M4 melanoma cells were radiolabeled overnight with 2 μCi/ml ^3 H-thymidine. […] The melanoma cells were then washed and resuspended to a final concentration of 3-4×10^4 cells/ml in DME supplemented with 20 mM Hepes and 10 mg/ml BSA. The cells remained viable (>95%) after this procedure, based upon exclusion of trypan blue dye.
Immulon 1 microtiter plates were prepared by drying down 100 μl/well of IV-H1 peptide which had been diluted to various concentrations (1-500 μg/ml) in Voller's carbonate buffer. The ability of the IV-H1 peptide to bind the plates was determined using radioiodinated peptides (described previously) in order to be certain that any differences in cell adhesion (or spreading) were not due to differential binding to surfaces. Nonspecific cell adhesion to sites on the plastic was blocked by the use of a 10 mg/ml solution of BSA in Voller's carbonate buffer at 37° C. for 1 hr. […] Adhesion was quantitated after washing to remove nonadherent and weakly adherent cells, by solubilizing the cells with 150 μl/well of 0.5N NaOH containing 1% SDS. Bound radioactivity was quantitated in a Beckman LS 3801 liquid scintillation counter. […] Each experiment was repeated a minimum of three times, and within a given experiment, each experimental point was determined in triplicate.

[7] = system: UV 2237 fibrosarcoma; experiment: Cell adhesion and spreading on coated peptide IV-H1 or type IV collagen; assay type: cell-based, murine; conditions: surface coated at 100 μg/ml
Experimental: (§3) To characterize peptide IV-H1, the interaction of the peptide with other cell lines was investigated. These cell lines include the highly metastatic human melanoma cell line A375 M (also provided by Dr. Fidler), which was maintained in MEM with added vitamins and 10% FBS; and the fibrosarcoma cell line UV2237 MM, which was maintained in DME with 10% FBS. […]
as §2, with “surfaces.” for “surfaces. Nonspecific cell adhesion to sites on the plastic was blocked by the use of a 10 mg/ml solution of BSA in Voller's carbonate buffer at 37° C. for 1 hr.”

[8] = system: Bovine aortic endothelial cells; experiment: as above; assay type: cell-based; conditions: surface coated at 100 μg/ml
Experimental: as §3
as §2, with “surfaces.” for “surfaces. Nonspecific cell adhesion to sites on the plastic was blocked by the use of a 10 mg/ml solution of BSA in Voller's carbonate buffer at 37° C. for 1 hr.”

[9] = system: Squamous carcinoma cell line (SCC9); experiment: as above; assay type: cell-based, human; conditions: surface coated at 100 μg/ml
Experimental: as §3
as §2, with “surfaces.” for “surfaces. Nonspecific cell adhesion to sites on the plastic was blocked by the use of a 10 mg/ml solution of BSA in Voller's carbonate buffer at 37° C. for 1 hr.”

[10] = system: A375 M melanoma; experiment: as above; assay type: cell-based, human; conditions: surface coated at 100 μg/ml
Experimental: as §3
as §2, with “surfaces.” for “surfaces. Nonspecific cell adhesion to sites on the plastic was blocked by the use of a 10 mg/ml solution of BSA in Voller's carbonate buffer at 37° C. for 1 hr.”

| Molecule | maximal inhibition of type IV collagen-mediated cell motility [1] [%] | % AD (percent of input cells which adhered) [2] [%] | % AD (percent of input cells which adhered) [3] [%] | % AD (percent of input cells which adhered) [4] [%] | melanoma cell motility [5] | % AD (percent of input cells which adhered) [6] [%] | % AD (percent of input cells which adhered) [7] [%] | % AD (percent of input cells which adhered) [8] [%] | % AD (percent of input cells which adhered) [9] [%] | % AD (percent of input cells which adhered) [10] [%] |
| --- | --- | --- | --- | --- | --- | --- | --- | --- | --- | --- |
| CC(C)[C@H](NC(=O)CN)C(=O)N[C@@H](CCCCN)C(=O)NCC(=O)N[C@@H](CC(=O)O)C(=O)N[C@@H](CCCCN)C(=O)NCC(=O)N[C@@H](CC(N)=O)C(=O)N1CCC[C@H]1C(=O)NCC(=O)N[C@@H](Cc1c[nH]c2ccccc12)C(=O)N1CCC[C@H]1C(=O)NCC(=O)N[C@@H](C)C(=O)N1CCC[C@H]1C(=O)O [peptide IV-H1, GVKGDKGNPGWPGAP] (H-GVKGDKGNPGWPGAP-OH) | 80 | – | – | – | – | – | – | – | – | – |
| Type IV Collagen: Type IV collagen extracted from the Englebreth Holm Swarm sarcoma grown in lathyritic mice | – | 18.6 | 7.7 | 100.0 | 10 -fold background levels | 61.9 | 7.9 | 52.7 | 39.6 | 50.3 |
